Reference: patent US20220056043A1, “NITROGEN-CONTAINING FUSED CYCLIC COMPOUND, PREPARATION METHOD THEREFOR AND USE THEREOF” (SICHUAN KELUN-BIOTECH BIOPHARMACEUTICAL CO., LTD., priority 2019, published 2022)

Biological target: T1, hTLR7 (Homo sapiens, UniProt Q9NYK1)
T1 construct: host or cells: HEK-hTLR7-NF-κB-Luciferase cells
T1 sequence (Q9NYK1 27-1049): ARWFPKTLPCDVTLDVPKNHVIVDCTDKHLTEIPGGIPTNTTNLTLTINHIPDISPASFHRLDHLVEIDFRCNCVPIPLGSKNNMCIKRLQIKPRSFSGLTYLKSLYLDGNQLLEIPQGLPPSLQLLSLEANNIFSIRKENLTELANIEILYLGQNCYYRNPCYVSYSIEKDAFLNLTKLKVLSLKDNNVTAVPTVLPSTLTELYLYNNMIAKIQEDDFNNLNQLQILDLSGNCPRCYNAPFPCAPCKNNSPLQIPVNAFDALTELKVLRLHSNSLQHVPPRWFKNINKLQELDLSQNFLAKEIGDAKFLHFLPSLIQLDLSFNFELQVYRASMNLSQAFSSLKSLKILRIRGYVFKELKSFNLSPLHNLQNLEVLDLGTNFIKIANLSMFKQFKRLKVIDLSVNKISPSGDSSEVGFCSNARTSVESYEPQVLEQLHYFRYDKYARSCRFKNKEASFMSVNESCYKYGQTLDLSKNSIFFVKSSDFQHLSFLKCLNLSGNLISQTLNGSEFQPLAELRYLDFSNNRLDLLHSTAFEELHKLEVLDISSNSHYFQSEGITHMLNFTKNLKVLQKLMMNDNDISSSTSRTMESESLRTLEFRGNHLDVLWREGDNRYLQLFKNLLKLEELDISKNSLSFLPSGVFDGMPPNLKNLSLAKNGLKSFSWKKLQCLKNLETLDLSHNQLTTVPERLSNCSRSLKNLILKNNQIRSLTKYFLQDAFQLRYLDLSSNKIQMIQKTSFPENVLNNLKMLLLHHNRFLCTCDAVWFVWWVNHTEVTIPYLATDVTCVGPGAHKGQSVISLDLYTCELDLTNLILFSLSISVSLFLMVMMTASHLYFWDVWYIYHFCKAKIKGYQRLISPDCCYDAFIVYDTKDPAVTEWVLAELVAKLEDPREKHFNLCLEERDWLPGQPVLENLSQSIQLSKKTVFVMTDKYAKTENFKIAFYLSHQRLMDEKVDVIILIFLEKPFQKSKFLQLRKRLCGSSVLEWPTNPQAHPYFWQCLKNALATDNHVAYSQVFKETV
Assay: Agonistic effect on hTLR7, HEK-hTLR7-NF-κB-Luciferase reporter cells
Assay type: cell-based
Settings: 16 hours
Method in brief: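 HEK cells carrying human TLR7 and NF-κB-luciferase reporter, […] in DMEM with 10% FBS, exposed to compound for 16 h at 37 °C, 5% CO2; serves as specificity counterscreen to NLRP3 activity. Luminescence (RLU) after 5 min with luciferase reagent; EC50 by four-parameter variable-slope fit.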

EC50 [µM] | Structure (SMILES)
> 100 | CC(C)(O)CNc1cc(N)nc2cc(-c3ccn[nH]3)sc12 [Compound 28, (1-(5-amino-2-(1H-pyrazol-5-yl)thieno[3,2-b]pyridin-7-yl)amino)-2-methyl-2-propanol]
> 100 | C[C@@H](O)CNc1cc(N)nc2cc(-c3ccn[nH]3)sc12 [Compound 29]
> 100 | Nc1cc(N[C@@H]2CC[C@@H](O)C2)c2sc(-c3ccn[nH]3)cc2n1 [Compound 30, (1R,3R)-3-((5-amino-2-(1H-pyrazol-5-yl)thieno[3,2-b]pyridin-7-yl)amino)cyclopentanol]
> 100 | Nc1cc(NC(CCO)c2ccccc2)c2sc(-c3ccn[nH]3)cc2n1 (centres unmarked) [Compound 123, 3-((5-amino-2-(1H-pyrazol-5-yl)thieno[3,2-b]pyridin-7-yl)amino)-3-phenyl-1-propanol]
> 100 | C[C@@H]1CN(CCNc2cc(N)nc3cc(-c4ccn[nH]4)sc23)C[C@@H](C)O1 [Compound 124, N^7-(2-((2R,6R)-2,6-dimethylmorpholino)ethyl)-2-(1H-pyrazol-5-yl)thieno[3,2-b]pyridine-5,7-diamine]
> 100 | C[C@@H](CCO)Nc1cc(N)nc2cc(-c3ccn[nH]3)sc12 [Compound 125, (S)-3-((5-amino-2-(1H-pyrazol-5-yl)thieno[3,2-b]pyridin-7-yl)amino)butanol]
> 100 | Nc1cc(NCC2CCC2)c2sc(-c3ccn[nH]3)cc2n1 [Compound 126, N^7-(cyclobutylmethyl)-2-(1H-pyrazol-5-yl)thieno[3,2-b]pyridine-5,7-diamine]
> 100 | CN(CCCO)c1cc(N)nc2cc(-c3ccn[nH]3)sc12 [Compound 127, 3-((5-amino-2-(1H-pyrazol-5-yl)thieno[3,2-b]pyridin-7-yl)(methyl)amino)-1-propanol]
> 100 | C[C@H]1CC[C@H](Nc2cc(N)nc3cc(-c4ccn[nH]4)sc23)CC1 [Compound 128, N^7-((1R,4R)-4-methylcyclohexyl)-2-(1H-pyrazol-5-yl)thieno[3,2-b]pyridine-5,7-diamine]
> 100 | C[C@]1(O)C[C@@H](Nc2cc(N)nc3cc(-c4ccn[nH]4)sc23)C1 [Compound 129, (1s,3s)-3-((5-amino-2-(1H-pyrazol-5-yl)thieno[3,2-b]pyridin-7-yl)amino)-1-methylcyclobutanol]
> 100 | C[C@H](Nc1cc(N)nc2cc(-c3ccn[nH]3)sc12)c1cccc(C(F)(F)F)c1 [Compound 131, (S)-2-(1H-pyrazol-5-yl)-N^7-(1-(3-(trifluoromethyl)phenyl)ethyl)thieno[3,2-b]pyridine-5,7-diamine]
> 100 | CC[C@@H](CO)Nc1cc(N)nc2cc(-c3ccn[nH]3)sc12 [Compound 132, (S)-2-((5-amino-2-(1H-pyrazol-5-yl)thieno[3,2-b]pyridin-7-yl)amino)-1-butanol]
> 100 | COC[C@@H](C)Nc1cc(N)nc2cc(-c3ccn[nH]3)sc12 [Compound 133, (R)—N^7-(1-methoxyprop-2-yl)-2-(1H-pyrazol-5-yl)thieno[3,2-b]pyridine-5,7-diamine]
> 100 | Cc1cccnc1CNc1cc(N)nc2cc(-c3ccn[nH]3)sc12 [Compound 134, N^7-((3-methylpyridin-2-yl)methyl)-2-(1H-pyrazol-5-yl)thieno[3,2-b]pyridine-5,7-diamine]
> 100 | Nc1cc(NCCN2CCCC2=O)c2sc(-c3ccn[nH]3)cc2n1 [Compound 135, 1-(2-((5-amino-2-(1H-pyrazol-5-yl)thieno[3,2-b]pyridin-7-yl)amino)ethyl)pyrrolidin-2-one]
> 100 | Nc1cc(NCC(CO)CO)c2sc(-c3ccn[nH]3)cc2n1 [Compound 136]

EC50 [µM] | Structure (SMILES)
> 100 | CNC(=O)CNc1cc(N)nc2cc(-c3ccn[nH]3)sc12 [Compound 137, 2-((5-amino-2-(1H-pyrazol-5-yl)thieno[3,2-b]pyridin-7-yl)amino)-N-methylacetamide]
> 100 | Nc1cc(NCC(=O)NC2CC2)c2sc(-c3ccn[nH]3)cc2n1 [Compound 138, 2-((5-amino-2-(1H-pyrazol-5-yl)thieno[3,2-b]pyridin-7-yl)amino)-N-cyclopropylacetamide]
> 100 | CN(CCO)c1cc(N)nc2cc(-c3ccn[nH]3)sc12 [Compound 139, 2-((5-amino-2-(1H-pyrazol-5-yl)thieno[3,2-b]pyridin-7-yl)(methyl)amino)ethanol]
> 100 | CCN(CCNc1cc(N)nc2cc(-c3ccn[nH]3)sc12)C(=O)Cc1cccc(C)c1 [Compound 140, N-(2-((5-amino-2-(1H-pyrazol-5-yl)thieno[3,2-b]pyridin-7-yl)amino)ethyl)-N-ethyl-2-(m-tolyl)acetamide]
> 100 | CC(C)CNc1cc(N)nc2cc(-c3ccn[nH]3)sc12 [Compound 141, N^7-isobutyl-2-(1H-pyrazol-5-yl)thieno[3,2-b]pyridin-5,7-diamine]
> 100 | Nc1cc(NC2CCC(F)(F)CC2)c2sc(-c3ccn[nH]3)cc2n1 [Compound 143, N^7-(4,4-difluorocyclohexyl)-2-(1H-pyrazol-5-yl)thieno[3,2-b]pyridin-5,7-diamine]
> 100 | CC(C)C[C@H](CO)Nc1cc(N)nc2cc(-c3ccn[nH]3)sc12 [Compound 144, (R)-2-((5-amino-2-(1H-pyrazol-5-yl)thieno[3,2-b]pyridin-7-yl)amino)-4-methyl-1-pentanol]
> 100 | CCC(=O)N(CC)CCNc1cc(N)nc2cc(-c3ccn[nH]3)sc12 [Compound 145, N-(2-((5-amino-2-(1H-pyrazol-5-yl)thieno[3,2-b]pyridin-7-yl)amino)ethyl)-N-ethylpropionamide]
> 100 | CCN(CCNc1cc(N)nc2cc(-c3ccn[nH]3)sc12)C(=O)C1CC1 [Compound 146, N-(2-((5-amino-2-(1H-pyrazol-5-yl)thieno[3,2-b]pyridin-7-yl)amino)ethyl)-N-ethylcyclopropyl formamide]
> 100 | Nc1cc(N[C@H]2CC[C@H](O)CC2)c2sc(-c3ccn[nH]3)cc2n1 [Compound 147, (1R,4R)-4-((5-amino-2-(1H-pyrazol-5-yl)thieno[3,2-b]pyridin-7-yl)amino)cyclohexanol]
> 100 | C[C@@H]1CN(c2cc(N)nc3cc(-c4ccn[nH]4)sc23)C[C@@H](C)O1 [Compound 148, 7-((2R,6R)-2,6-dimethylmorpholino)-2-(1H-pyrazol-5-yl)thieno[3,2-b]pyridine-5-amine]
> 100 | Cc1noc(C)c1CNc1cc(N)nc2cc(-c3ccn[nH]3)sc12 [Compound 149, N^7-((3,5-dimethylisoxazol-4-yl)methyl)-2-(1H-pyrazol-5-yl)thieno[3,2-b]pyridine-5,7-diamine]
> 100 | Nc1cc(NCCCN2CCCC2=O)c2sc(-c3ccn[nH]3)cc2n1 [Compound 150]
> 100 | Cc1c(-c2cc[nH]n2)sc2c(NCC(C)(C)CO)cc(N)nc12 [Compound 151]
> 100 | COCCNc1cc(N)nc2c(C)c(-c3cc[nH]n3)sc12 [Compound 152]

Structure (SMILES) | EC50 [µM]
Nc1cc(N[C@H]2[C@@H]3CNC[C@@H]32)c2sc(-c3ccn[nH]3)cc2n1 [Compound 142, N^7-((1R,5S,6S)-3-azabicyclo[3.1.0]hex-6-yl)-2-(1H-pyrazol-5-yl)thieno[3,2-b]pyridin-5,7-diamine] | > 100
